Biological target: T1, JAK3 (Homo sapiens, UniProt P52333)
T1 sequence (P52333 1-1124): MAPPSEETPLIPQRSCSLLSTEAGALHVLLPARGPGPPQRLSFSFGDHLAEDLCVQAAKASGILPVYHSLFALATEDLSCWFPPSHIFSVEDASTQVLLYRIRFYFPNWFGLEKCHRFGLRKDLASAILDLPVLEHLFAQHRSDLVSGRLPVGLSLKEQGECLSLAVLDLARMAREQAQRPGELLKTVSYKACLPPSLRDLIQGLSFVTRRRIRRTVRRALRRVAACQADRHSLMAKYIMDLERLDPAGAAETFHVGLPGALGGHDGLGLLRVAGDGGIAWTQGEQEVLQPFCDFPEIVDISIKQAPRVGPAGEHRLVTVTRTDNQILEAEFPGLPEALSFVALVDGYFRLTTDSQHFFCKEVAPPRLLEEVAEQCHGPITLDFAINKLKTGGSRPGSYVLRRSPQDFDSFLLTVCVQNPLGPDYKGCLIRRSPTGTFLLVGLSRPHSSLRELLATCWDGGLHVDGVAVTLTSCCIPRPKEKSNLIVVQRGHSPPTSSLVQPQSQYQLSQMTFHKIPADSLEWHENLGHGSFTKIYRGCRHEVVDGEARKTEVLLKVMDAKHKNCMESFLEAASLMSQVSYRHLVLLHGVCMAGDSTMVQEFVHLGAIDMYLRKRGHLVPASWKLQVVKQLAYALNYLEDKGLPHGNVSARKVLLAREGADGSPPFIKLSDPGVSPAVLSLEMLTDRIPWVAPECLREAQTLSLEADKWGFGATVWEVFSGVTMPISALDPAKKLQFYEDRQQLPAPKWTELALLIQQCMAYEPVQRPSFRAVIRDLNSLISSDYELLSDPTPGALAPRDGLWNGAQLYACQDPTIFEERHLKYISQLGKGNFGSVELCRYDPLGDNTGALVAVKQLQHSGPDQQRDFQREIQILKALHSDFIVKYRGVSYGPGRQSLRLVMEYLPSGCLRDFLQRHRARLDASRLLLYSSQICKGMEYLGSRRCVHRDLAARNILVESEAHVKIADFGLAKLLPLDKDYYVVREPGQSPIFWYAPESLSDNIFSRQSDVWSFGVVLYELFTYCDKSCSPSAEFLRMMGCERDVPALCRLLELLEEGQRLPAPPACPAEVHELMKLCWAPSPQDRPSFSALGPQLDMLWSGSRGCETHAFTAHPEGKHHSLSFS
Test: JAK3 Inhibition Assay (33P incorporation into poly(Glu)4Tyr)
Assay type: biochemical
Conditions: for Ki: 1 nM JAK3, 5 μM ATP, 1 μM poly(Glu)4Tyr, 25° C.
Method: Compounds were screened for their ability to inhibit JAK3 using the assay shown below. Reactions were carried out in a kinase buffer containing 100 mM HEPES (pH 7.4), 1 mM DTT, 10 mM MgCl2, 25 mM NaCl, and 0.01% BSA. Substrate concentrations in the assay were 5 μM ATP (200 uCi/μmole ATP) and 1 μM poly(Glu)4Tyr. Reactions were carried out at 25° C. and 1 nM JAK3.
To each well of a 96 well polycarbonate plate was added 1.5 μl of a candidate JAK3 inhibitor along with 50 μlof kinase buffer containing 2 μM poly(Glu)4Tyr and 10 μM ATP. This was then mixed and 50 μl of kinase buffer containing 2 nM JAK3 enzyme was added to start the reaction. After 20 minutes at room temperature (25° C.), the reaction was stopped with 50 μl of 20% trichloroacetic acid (TCA) that also contained 0.4 mM ATP. The entire contents of each well were then transferred to a 96 well glass fiber filter plate using a TomTek Cell Harvester. After washing, 60 μl of scintillation fluid was added and ^33P incorporation detected on a Perkin Elmer TopCount.

For Nc1ccc(Nc2nc(N)n(-c3ncc(F)c(N4CCCC4C(=O)NCC(F)(F)F)n3)n2)cc1 (centres unmarked) [Compound 56], the Ki was ≤ 1 µM.

Molecule Nc1cccc(Nc2nc(N)n(-c3ncc(F)c(N4CCCC4C(=O)NCC(F)(F)F)n3)n2)c1 (centres unmarked) [Compound 57] has a Ki of 1 to 10 µM.

COc1ccc(Nc2nc(N)n(-c3ncc(F)c(NCC(=O)NCC(F)(F)F)n3)n2)cc1 [Compound 58] was tested, and the Ki was 1 to 10 µM.

Work on O=C(NCC(F)(F)F)[C@H]1CCCN1c1ccnc(-c2ccc3c(c2)OCO3)n1 [Compound 59] yielded a Ki of 1 to 10 µM.

Work on O=C(NCC(F)(F)F)[C@H]1CCCN1c1ccnc(-c2ccc3ncccc3c2)n1 [Compound 60] yielded a Ki of 1 to 10 µM.

Work on Nc1nc2ccc(-c3nccc(N4CCC[C@@H]4C(=O)NCC(F)(F)F)n3)cc2s1 [Compound 61] yielded a Ki of 1 to 10 µM.

For COc1ccc(-c2nccc(N3CCC[C@@H]3C(=O)NCC(F)(F)F)n2)cn1 [Compound 62], the “inhibition of JAK3 at concentrations of 50 μM” value (“inhibition of JAK3” for short) was “did not inhibit”.

In the case of CC(=O)Nc1nc2ccc(-c3nccc(N4CCC[C@@H]4C(=O)NCC(F)(F)F)n3)cc2s1 [Compound 63], the Ki is reported as 10 to 50 µM.

CC(=O)Nc1nc2ccc(-c3ncc(F)c(NC(C)(C)C(=O)NCC(F)(F)F)n3)cc2s1 [Compound 64] showed a Ki of 1 to 10 µM.

For CC(=O)Nc1nc2ccc(-c3nccc(N[C@@H](C(=O)NCC(F)(F)F)C(C)C)n3)cc2s1 [Compound 65], the Ki was 1 to 10 µM.

In the case of CC(C)(Nc1nc(-c2ccc3nc(N)sc3c2)ncc1F)C(=O)NCC(F)(F)F [Compound 66], the Ki is reported as 1 to 10 µM.

Molecule CC(C)(Nc1nc(-c2ccc3c(c2)OCO3)ncc1F)C(=O)NCC(F)(F)F [Compound 67] has a Ki of 1 to 10 µM.

With CC(C)(Nc1nc(-c2ccc3ncccc3c2)ncc1F)C(=O)NCC(F)(F)F [Compound 68] the Ki was ≤ 1 µM.

COc1ccc(-c2ncc(F)c(NC(C)(C)C(=O)NCC(F)(F)F)n2)cn1 [Compound 69] was tested, and the “inhibition of JAK3” value was “did not inhibit”.

With COc1ccc(-c2nccc(N[C@@H](C(=O)NCC(F)(F)F)C(C)C)n2)cn1 [Compound 70] the “inhibition of JAK3” value was “did not inhibit”.

With CC(C)[C@@H](Nc1ccnc(-c2ccc3c(c2)OCO3)n1)C(=O)NCC(F)(F)F [Compound 71] the Ki was 10 to 50 µM.

Work on CC(C)[C@@H](Nc1ccnc(-c2ccc3ncccc3c2)n1)C(=O)NCC(F)(F)F [Compound 72] yielded a Ki of 1 to 10 µM.

CC(C)[C@@H](Nc1ccnc(-c2ccc3nc(N)sc3c2)n1)C(=O)NCC(F)(F)F [Compound 73] showed a Ki of 1 to 10 µM.

In the case of CC(C)(Nc1ccnc(-c2ccc3c(c2)OCO3)n1)C(=O)NCC(F)(F)F [Compound 74], the Ki is reported as ≤ 1 µM.

For CC(C)(Nc1ccnc(-c2ccc3ncccc3c2)n1)C(=O)NCC(F)(F)F [Compound 75], the Ki was ≤ 1 µM.

CC(C)[C@@H](Nc1nc(-c2ccc3c(c2)OCO3)ncc1F)C(=O)NCC(F)(F)F [Compound 76] showed a Ki of 10 to 50 µM.

CC(C)[C@@H](Nc1nc(-c2ccc3ncccc3c2)ncc1F)C(=O)NCC(F)(F)F [Compound 77] was tested, and the Ki was 1 to 10 µM.

For CC(C)[C@@H](Nc1nc(-c2ccc3nc(N)sc3c2)ncc1F)C(=O)NCC(F)(F)F [Compound 78], the Ki was 1 to 10 µM.

For CC(C)(Nc1ccnc(-c2ccc3nc(N)sc3c2)n1)C(=O)NCC(F)(F)F [Compound 79], the Ki was 1 to 10 µM.

COc1ccc(-c2nccc(NC(C)(C)C(=O)NCC(F)(F)F)n2)cn1 [Compound 80] gave a Ki of 10 to 50 µM.

For COc1ccc(-c2ncc(F)c(N[C@@H](C(=O)NCC(F)(F)F)C(C)C)n2)cn1 [Compound 81], the “inhibition of JAK3” value was “did not inhibit”.

Work on CC(=O)Nc1nc2ccc(-c3nccc(NC(C)(C)C(=O)NCC(F)(F)F)n3)cc2s1 [Compound 82] yielded a Ki of 1 to 10 µM.

For O=C(NCC(F)(F)F)[C@H]1CCCN1c1ccnc(-c2ccc(=O)[nH]c2)n1 [Compound 83], the Ki was 10 to 50 µM.

Molecule CC(C)(Nc1nc(-c2ccc(=O)[nH]c2)ncc1F)C(=O)NCC(F)(F)F [Compound 84] has a Ki of 10 to 50 µM.

In the case of CC(C)[C@@H](Nc1ccnc(-c2ccc(=O)[nH]c2)n1)C(=O)NCC(F)(F)F [Compound 85], the Ki is reported as 10 to 50 µM.

Work on CC(C)(Nc1ccnc(-c2ccc(=O)[nH]c2)n1)C(=O)NCC(F)(F)F [Compound 86] yielded a Ki of 1 to 10 µM.

For CC(C)[C@@H](Nc1nc(-c2ccc(=O)[nH]c2)ncc1F)C(=O)NCC(F)(F)F [Compound 87], the “inhibition of JAK3” value was “did not inhibit”.

With O=C(NCC(F)(F)F)[C@H]1CCCN1c1nc(-c2ccc3c(c2)OCO3)ncc1F [Compound 88] the Ki was 10 to 50 µM.

Molecule O=C(NCC(F)(F)F)[C@H]1CCCN1c1nc(-c2ccc3ncccc3c2)ncc1F [Compound 89] has a Ki of 10 to 50 µM.

With Nc1nc2ccc(-c3ncc(F)c(N4CCC[C@@H]4C(=O)NCC(F)(F)F)n3)cc2s1 [Compound 90] the “inhibition of JAK3” value was “did not inhibit”.

In the case of COc1ccc(-c2ncc(F)c(N3CCC[C@@H]3C(=O)NCC(F)(F)F)n2)cn1 [Compound 91], the “inhibition of JAK3” value is reported as “did not inhibit”.

With CC(=O)Nc1nc2ccc(-c3ncc(F)c(N4CCC[C@@H]4C(=O)NCC(F)(F)F)n3)cc2s1 [Compound 92] the “inhibition of JAK3” value was “did not inhibit”.

CCNC(=O)c1cc(-c2ncc(F)c(NC(C)(C)C(=O)NCC(F)(F)F)n2)c[nH]1 [Compound 93] was tested, and the Ki was 1 to 10 µM.

With CC(C)(Nc1nc(-c2c[nH]c(C(=O)NC3CC3)c2)ncc1F)C(=O)NCC(F)(F)F [Compound 94] the Ki was 1 to 10 µM.

For CC(C)(Nc1nc(-c2c[nH]c(C(=O)NCc3ccccc3)c2)ncc1F)C(=O)NCC(F)(F)F [Compound 95], the “inhibition of JAK3” value was “did not inhibit”.

CC(C)NC(=O)c1cc(-c2ncc(F)c(NC(C)(C)C(=O)NCC(F)(F)F)n2)c[nH]1 [Compound 96] showed a Ki of 10 to 50 µM.

CC(C)(Nc1nc(-c2c[nH]c(C(=O)N3CCCC3)c2)ncc1F)C(=O)NCC(F)(F)F [Compound 97] was tested, and the Ki was ≤ 1 µM.

CC(C)(Nc1ccnc(-c2c[nH]c(C(=O)NC3CC3)c2)n1)C(=O)NCC(F)(F)F [Compound 98] was tested, and the Ki was 1 to 10 µM.

In the case of CC(C)(Nc1ccnc(-c2c[nH]c(C(=O)NCc3ccccc3)c2)n1)C(=O)NCC(F)(F)F [Compound 99], the Ki is reported as 10 to 50 µM.

CC(C)NC(=O)c1cc(-c2nccc(NC(C)(C)C(=O)NCC(F)(F)F)n2)c[nH]1 [Compound 100] gave a Ki of 10 to 50 µM.

CC(C)(Nc1ccnc(-c2c[nH]c(C(=O)N3CCCC3)c2)n1)C(=O)NCC(F)(F)F [Compound 101] was tested, and the Ki was ≤ 1 µM.

CC(C)(Nc1ccnc(-c2c[nH]c(C(=O)N3CC=CC3)c2)n1)C(=O)NCC(F)(F)F [Compound 102] was tested, and the Ki was ≤ 1 µM.

In the case of CNC(=O)c1cc(-c2ncc(F)c(N[C@@H](C(=O)NCC(F)(F)F)C(C)C)n2)c[nH]1 [Compound 103], the Ki is reported as 10 to 50 µM.

CC(C)[C@@H](Nc1nc(-c2c[nH]c(C(=O)NCc3ccccc3)c2)ncc1F)C(=O)NCC(F)(F)F [Compound 104] was tested, and the Ki was 1 to 10 µM.

CC(C)NC(=O)c1cc(-c2ncc(F)c(N[C@@H](C(=O)NCC(F)(F)F)C(C)C)n2)c[nH]1 [Compound 105] was tested, and the “inhibition of JAK3” value was “did not inhibit”.

CC(C)C(Nc1nc(-c2c[nH]c(C(=O)NCC3CC3)c2)ncc1F)C(=O)NCC(F)(F)F (centres unmarked) [Compound 106] was tested, and the Ki was 10 to 50 µM.

Molecule CC(C)C(Nc1nc(-c2c[nH]c(C(=O)N3CCCC3)c2)ncc1F)C(=O)NCC(F)(F)F (centres unmarked) [Compound 107] has a Ki of 1 to 10 µM.

In the case of CC(C)C(Nc1nc(-c2c[nH]c(C(=O)N3CC=CC3)c2)ncc1F)C(=O)NCC(F)(F)F (centres unmarked) [Compound 108], the Ki is reported as ≤ 1 µM.

For CNC(=O)c1cc(-c2nccc(N[C@@H](C(=O)NCC(F)(F)F)C(C)C)n2)c[nH]1 [Compound 109], the Ki was 1 to 10 µM.

In the case of CC(C)[C@@H](Nc1ccnc(-c2c[nH]c(C(=O)NCc3ccccc3)c2)n1)C(=O)NCC(F)(F)F [Compound 110], the Ki is reported as 1 to 10 µM.

With CC(C)NC(=O)c1cc(-c2nccc(N[C@@H](C(=O)NCC(F)(F)F)C(C)C)n2)c[nH]1 [Compound 111] the “inhibition of JAK3” value was “did not inhibit”.
